Assay results taken from paper PMC6210068 (ACS Omega, 2018).

Columns and labels:
KOR [1] = molecular target: T1, KOR (Homo sapiens, UniProt P41145); test: cell-based; format: cell-based
hA3AR = molecular target: T2, hA3AR (Homo sapiens, UniProt P0DMS8); test: A3AR binding
T2 sequence (P0DMS8 1-318): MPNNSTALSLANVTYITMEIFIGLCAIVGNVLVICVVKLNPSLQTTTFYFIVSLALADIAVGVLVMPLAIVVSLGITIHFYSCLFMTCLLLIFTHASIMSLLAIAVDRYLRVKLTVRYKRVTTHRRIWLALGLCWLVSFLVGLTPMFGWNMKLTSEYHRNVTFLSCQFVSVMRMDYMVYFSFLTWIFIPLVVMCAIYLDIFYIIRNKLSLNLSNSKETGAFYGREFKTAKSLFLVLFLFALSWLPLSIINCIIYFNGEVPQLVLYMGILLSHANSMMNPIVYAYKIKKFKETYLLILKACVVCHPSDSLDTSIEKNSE

hDAT = hDAT (Homo sapiens, UniProt Q01959); test: Radioligand binding at DAT; settings: 10 μM; [3H]WIN35428; negative = enhanced radioligand binding
hDAT, sequence (Q01959 whole entry): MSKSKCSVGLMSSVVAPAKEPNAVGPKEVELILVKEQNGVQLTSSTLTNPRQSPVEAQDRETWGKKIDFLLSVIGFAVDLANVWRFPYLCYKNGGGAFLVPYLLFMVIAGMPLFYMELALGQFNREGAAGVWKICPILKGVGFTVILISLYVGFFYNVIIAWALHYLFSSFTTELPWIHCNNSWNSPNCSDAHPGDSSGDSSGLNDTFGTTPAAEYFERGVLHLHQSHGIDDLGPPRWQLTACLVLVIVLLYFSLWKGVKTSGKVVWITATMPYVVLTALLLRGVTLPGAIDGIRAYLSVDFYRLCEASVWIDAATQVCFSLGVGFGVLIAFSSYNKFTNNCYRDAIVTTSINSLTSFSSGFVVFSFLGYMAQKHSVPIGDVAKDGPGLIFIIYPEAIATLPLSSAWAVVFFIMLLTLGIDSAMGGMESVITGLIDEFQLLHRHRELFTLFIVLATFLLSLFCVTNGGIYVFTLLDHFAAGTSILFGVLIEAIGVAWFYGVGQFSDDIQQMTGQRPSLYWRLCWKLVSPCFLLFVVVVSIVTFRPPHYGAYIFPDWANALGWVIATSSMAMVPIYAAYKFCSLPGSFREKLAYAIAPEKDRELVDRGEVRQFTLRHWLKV

KOR [2] = molecular target: T1, KOR; format: cell-based; settings: 1 μM 98
rat kidney TSPO = rat kidney TSPO (Rattus norvegicus, UniProt P16257); test: Radioligand binding at TSPO; settings: for Ki: TSPO, rat TSPO, [3H]PK11195
rat kidney TSPO, sequence (P16257 whole entry): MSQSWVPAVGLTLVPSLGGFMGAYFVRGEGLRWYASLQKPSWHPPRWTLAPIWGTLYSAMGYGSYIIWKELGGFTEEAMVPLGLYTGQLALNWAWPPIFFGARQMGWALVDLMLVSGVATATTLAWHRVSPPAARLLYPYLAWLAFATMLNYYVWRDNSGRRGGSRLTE

KOR [3] = molecular target: T1, KOR; test: biochemical; format: binding; settings: for Ki: KOR
DOR [4] = molecular target: T3, DOR (Homo sapiens, UniProt P41143); test: Radioligand binding at DOR
T3 sequence (P41143 whole entry): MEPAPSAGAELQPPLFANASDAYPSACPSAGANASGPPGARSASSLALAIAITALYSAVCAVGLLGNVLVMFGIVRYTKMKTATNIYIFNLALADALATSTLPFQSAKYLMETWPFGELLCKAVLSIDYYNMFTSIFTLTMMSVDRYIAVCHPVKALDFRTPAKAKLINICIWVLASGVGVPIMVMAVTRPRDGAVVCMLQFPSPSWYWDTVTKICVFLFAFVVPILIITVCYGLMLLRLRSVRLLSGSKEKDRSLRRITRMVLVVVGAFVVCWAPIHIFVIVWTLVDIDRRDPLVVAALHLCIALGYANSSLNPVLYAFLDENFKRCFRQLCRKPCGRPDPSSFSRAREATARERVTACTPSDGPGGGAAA

MOR [5] = molecular target: T4, MOR (Homo sapiens, UniProt P35372); test: biochemical; format: binding; settings: for MOR, inhibition of radioligand binding at 10 μM (class): Table 2
T4 sequence (P35372 whole entry): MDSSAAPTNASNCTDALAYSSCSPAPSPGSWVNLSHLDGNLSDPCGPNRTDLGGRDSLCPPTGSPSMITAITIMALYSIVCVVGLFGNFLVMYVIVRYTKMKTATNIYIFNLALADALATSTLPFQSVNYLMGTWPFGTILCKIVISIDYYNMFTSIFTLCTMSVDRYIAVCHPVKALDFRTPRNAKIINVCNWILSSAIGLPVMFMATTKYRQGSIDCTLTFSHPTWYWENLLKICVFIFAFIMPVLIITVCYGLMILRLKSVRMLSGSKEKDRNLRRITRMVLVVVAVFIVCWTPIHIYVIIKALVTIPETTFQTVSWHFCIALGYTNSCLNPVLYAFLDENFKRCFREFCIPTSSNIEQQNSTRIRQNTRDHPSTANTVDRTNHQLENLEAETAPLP

mA2AAR = mA2AAR (Mus musculus, UniProt Q60613); test: mA2AAR binding; settings: read-out: mA2AAR binding, % inhibition at 10 μM
mA2AAR, sequence (Q60613 whole entry): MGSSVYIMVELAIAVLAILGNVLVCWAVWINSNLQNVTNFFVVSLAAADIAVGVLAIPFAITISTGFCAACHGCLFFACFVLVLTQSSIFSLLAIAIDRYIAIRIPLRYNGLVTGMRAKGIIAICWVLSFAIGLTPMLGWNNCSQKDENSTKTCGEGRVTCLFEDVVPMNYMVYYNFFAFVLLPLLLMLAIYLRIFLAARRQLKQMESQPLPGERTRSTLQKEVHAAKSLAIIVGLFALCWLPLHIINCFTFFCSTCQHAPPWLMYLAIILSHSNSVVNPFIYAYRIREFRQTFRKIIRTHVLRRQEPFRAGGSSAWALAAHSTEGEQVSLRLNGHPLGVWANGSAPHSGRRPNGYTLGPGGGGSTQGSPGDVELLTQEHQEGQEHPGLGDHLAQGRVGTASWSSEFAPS

mA1AR = molecular target: T5, mA1AR (Mus musculus, UniProt Q60612); test: mA1AR binding; settings: read-out: mA1AR binding, % inhibition at 10 μM
T5 sequence (Q60612 1-326): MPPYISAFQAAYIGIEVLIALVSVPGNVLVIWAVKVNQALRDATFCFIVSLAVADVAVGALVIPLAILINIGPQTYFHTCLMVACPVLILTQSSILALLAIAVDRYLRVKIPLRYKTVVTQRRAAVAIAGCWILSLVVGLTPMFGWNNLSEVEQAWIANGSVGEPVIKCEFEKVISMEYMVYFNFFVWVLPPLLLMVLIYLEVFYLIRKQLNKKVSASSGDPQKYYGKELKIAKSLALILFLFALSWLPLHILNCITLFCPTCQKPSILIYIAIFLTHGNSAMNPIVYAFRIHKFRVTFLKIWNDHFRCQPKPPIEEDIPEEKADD

rat σ2 receptor = molecular target: T6, rat σ2 receptor (Rattus norvegicus, UniProt Q5U3Y7); test: PDSP binding, σ2 receptor
T6 sequence (Q5U3Y7 1-176): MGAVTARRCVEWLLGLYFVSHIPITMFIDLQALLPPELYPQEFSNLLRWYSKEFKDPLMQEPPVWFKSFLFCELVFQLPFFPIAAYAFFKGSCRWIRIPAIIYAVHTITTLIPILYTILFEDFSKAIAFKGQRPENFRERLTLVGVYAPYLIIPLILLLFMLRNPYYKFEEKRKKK

hA1AR = molecular target: T7, hA1AR (Homo sapiens, UniProt P30542); test: hA1AR binding; settings: read-out: binding inhibition at hA1AR (% at 10 μM)
T7 sequence (P30542 1-326): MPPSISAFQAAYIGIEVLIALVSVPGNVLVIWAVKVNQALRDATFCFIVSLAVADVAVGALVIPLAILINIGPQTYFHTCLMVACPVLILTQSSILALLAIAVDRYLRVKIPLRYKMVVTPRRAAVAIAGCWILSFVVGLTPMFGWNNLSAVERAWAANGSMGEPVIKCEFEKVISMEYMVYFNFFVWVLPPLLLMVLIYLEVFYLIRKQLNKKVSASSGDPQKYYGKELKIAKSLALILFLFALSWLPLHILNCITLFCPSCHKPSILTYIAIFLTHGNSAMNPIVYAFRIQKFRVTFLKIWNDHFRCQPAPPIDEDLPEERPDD

mA3AR [6] = molecular target: T8, mA3AR (Mus musculus, UniProt Q61618); test: Mouse A3AR binding
T8 sequence (Q61618 1-319): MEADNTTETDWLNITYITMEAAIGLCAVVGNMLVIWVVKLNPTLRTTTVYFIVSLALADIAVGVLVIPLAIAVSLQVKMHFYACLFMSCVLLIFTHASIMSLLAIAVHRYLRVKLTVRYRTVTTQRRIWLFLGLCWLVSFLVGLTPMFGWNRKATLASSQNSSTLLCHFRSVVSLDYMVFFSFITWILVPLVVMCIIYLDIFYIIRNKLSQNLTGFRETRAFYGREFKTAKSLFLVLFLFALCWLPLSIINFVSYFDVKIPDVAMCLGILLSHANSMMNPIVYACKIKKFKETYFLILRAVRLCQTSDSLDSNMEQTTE

hA2AAR = hA2AAR (Homo sapiens, UniProt P29274); test: hA2AAR binding; settings: read-out: binding inhibition at hA2AAR (% at 10 μM)
hA2AAR, sequence (P29274 whole entry): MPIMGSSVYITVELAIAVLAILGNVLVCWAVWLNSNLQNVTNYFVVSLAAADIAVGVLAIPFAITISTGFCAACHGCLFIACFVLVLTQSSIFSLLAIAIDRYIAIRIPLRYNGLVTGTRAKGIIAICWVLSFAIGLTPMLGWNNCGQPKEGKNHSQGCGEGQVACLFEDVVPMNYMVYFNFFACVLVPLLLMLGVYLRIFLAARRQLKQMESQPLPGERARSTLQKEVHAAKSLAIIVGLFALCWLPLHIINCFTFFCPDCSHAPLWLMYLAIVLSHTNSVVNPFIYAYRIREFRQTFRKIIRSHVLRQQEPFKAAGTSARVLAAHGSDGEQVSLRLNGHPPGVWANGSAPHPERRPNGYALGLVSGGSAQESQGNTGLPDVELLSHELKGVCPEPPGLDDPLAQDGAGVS

5HT2C serotonin receptor = molecular target: T9, 5HT2C serotonin receptor (Homo sapiens, UniProt P28335); test: PDSP off-target binding, 5HT2C
T9 sequence (P28335 33-458): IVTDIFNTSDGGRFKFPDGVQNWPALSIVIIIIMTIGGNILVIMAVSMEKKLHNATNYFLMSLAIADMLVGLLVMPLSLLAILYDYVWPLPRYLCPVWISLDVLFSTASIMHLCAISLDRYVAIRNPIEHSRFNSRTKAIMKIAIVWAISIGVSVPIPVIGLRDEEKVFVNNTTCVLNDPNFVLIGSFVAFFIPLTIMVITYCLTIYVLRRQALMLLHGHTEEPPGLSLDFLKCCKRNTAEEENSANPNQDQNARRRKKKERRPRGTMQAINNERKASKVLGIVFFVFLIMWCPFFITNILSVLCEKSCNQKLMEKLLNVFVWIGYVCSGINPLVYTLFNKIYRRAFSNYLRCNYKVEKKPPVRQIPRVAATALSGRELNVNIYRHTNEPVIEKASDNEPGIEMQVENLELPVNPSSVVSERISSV

5HT2B serotonin receptor = 5HT2B serotonin receptor (Homo sapiens, UniProt P41595); test: PDSP off-target binding, 5HT2B
5HT2B serotonin receptor, sequence (P41595 whole entry): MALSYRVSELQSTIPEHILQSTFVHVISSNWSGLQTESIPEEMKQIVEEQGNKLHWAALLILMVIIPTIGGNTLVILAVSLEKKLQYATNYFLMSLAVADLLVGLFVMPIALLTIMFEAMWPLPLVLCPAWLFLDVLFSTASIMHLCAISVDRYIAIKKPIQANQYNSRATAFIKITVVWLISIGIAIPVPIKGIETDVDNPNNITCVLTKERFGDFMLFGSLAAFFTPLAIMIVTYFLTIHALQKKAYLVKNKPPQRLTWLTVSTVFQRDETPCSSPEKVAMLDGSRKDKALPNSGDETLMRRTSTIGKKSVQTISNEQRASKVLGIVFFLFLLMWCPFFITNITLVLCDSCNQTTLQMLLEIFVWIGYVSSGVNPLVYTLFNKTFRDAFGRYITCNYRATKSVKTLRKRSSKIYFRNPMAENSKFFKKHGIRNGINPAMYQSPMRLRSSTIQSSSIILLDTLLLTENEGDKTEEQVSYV

mA3AR [7] = molecular target: T8, mA3AR; settings: ref Tosh et al. 2,3,6,34,35,37; cited from earlier work
KOR [8] = molecular target: T1, KOR; test: β-arrestin-recruitment TANGO assay at KOR; format: cell-based; settings: 10 μM; vs naloxone 121 = 100% inhibition; agonist 109 (3 nM)
MOR [9] = molecular target: T4, MOR; test: β-arrestin-recruitment TANGO assay at MOR; format: cell-based; settings: 10 μM
DOR [10] = molecular target: T3, DOR; test: β-arrestin-recruitment TANGO assay at DOR; format: cell-based; settings: 10 μM
[11] = [3H]U69593, mean ± SEM, N = 2–4

T1 sequence (P41145 whole entry): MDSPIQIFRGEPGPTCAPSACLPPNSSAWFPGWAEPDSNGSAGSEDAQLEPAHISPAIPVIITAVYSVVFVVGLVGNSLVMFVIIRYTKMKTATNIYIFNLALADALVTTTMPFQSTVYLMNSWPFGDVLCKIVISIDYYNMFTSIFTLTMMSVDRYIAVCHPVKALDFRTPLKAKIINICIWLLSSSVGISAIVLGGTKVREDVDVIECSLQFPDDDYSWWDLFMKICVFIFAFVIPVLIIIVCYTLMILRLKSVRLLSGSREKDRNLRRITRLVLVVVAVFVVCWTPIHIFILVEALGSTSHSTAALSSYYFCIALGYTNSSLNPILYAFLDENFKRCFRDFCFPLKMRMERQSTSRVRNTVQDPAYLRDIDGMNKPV

Structure (SMILES) | Ki (hA3AR) | DAT, inhibition, % of control at 10 μM (hDAT) | Ki (KOR [3]; [11]) | inhibition at 10 µM (mA2AAR) | inhibition at 10 µM (mA1AR) | Ki (rat kidney TSPO) | DOR, inhibition of radioligand binding at 10 μM (class) (DOR [4]; Table 2) | MOR, inhibition of radioligand binding at 10 μM (class) (MOR [5]) | Ki (5HT2C serotonin receptor) | A3AR binding, % at 10 μM (m) (mA3AR [7]) | further results
CNc1nc(C#Cc2ccccc2)nc2c1ccn2[C@H]1[C@H](O)[C@H](O)[C@@H]2C[C@@H]21 [compound 54, (1R,2R,3S,4R,5S)-4-(4-(Methylamino)-2-(phenylethynyl)-7H-pyrrolo[2,3-d]pyrimidin-7-yl)bicyclo[3.1.0]hexane-2,3-diol] | 85.6 ± 12 nM | −58% | 1120 ± 220 nM | – | – | – | – | – | – | – | inhibition of agonist 98 in cAMP assay (KOR [1]; 100 nM 98): did not inhibit; inhibition at 30 µM (KOR [1]; CHO, read-out: inhibition of cAMP accumulation, % inhibition at 30 μM): 16%; reduction of hA3AR binding affinity by 7-deaza modification (hA3AR; 28 vs 24, 54 vs 49, 55 vs 51): 16 fold; inhibition of agonist 98 in βarrestin2 assay (KOR [2]): did not inhibit; TSPO, inhibition of radioligand binding at 10 μM (class) (rat kidney TSPO; Table 5): ^e (<30% inhibition of radioligand binding at 10 μM); DOR, inhibition of radioligand binding at 10 μM (class) (DOR [4]; Table 5): ^d (30–50% inhibition of radioligand binding at 10 μM); Ki (MOR [5]): 2670 ± 280 nM
CNc1nc(C#Cc2ccc(Cl)s2)nc2c1ncn2[C@@H]1O[C@H](C(=O)OC)[C@@H](O)[C@H]1O [compound 46] | – | –220% | – | 12% | 62% | – | – | – | – | – | KOR, inhibition of radioligand binding at 10 μM (class) (KOR [3]; Table 3, 10 μM): ^d (30–50% inhibition of radioligand binding at 10 μM)
CCOC(=O)[C@@]12C[C@@H]1[C@@H](n1cnc3c(NC)cc(C#Cc4ccc(Cl)s4)nc31)[C@H](O)[C@@H]2O [compound 26] | 29.4 ± 13.8 nM | <10% | 806 ± 263 nM | 5% | 54% | 3810 ± 100 nM | ^c (30–50% inhibition of radioligand binding at 10 μM) | ^c (30–50% inhibition of radioligand binding at 10 μM) | – | – | Ki (rat σ2 receptor): 1760 nM; inhibition at 10 µM (hA1AR): 39%; Ki (mA3AR [6]): 828 nM; inhibition at 10 µM (hA2AAR): 16%
CCOC(=O)[C@@]12C[C@@H]1[C@@H](n1ccc3c(NC)nc(C#Cc4ccc(Cl)s4)nc31)[C@@H]1OC(C)(C)O[C@@H]12 [compound 77, Ethyl(3aR,3bS,4aS,5R,5aS)-5-(2-((5-chlorothiophen-2-yl)ethynyl)-4-(methylamino)-7H-pyrrolo[2,3-d]pyrimidin-7-yl)-2,2-dimethyltetrahydrocyclopropa[3,4]cyclopenta[1,2-d][1,3]dioxole-3b(3aH)-carboxylate] | 1650 ± 330 nM | –20% | 52 ± 23 nM | – | – | – | – | – | 16 nM | – | selectivity at 5HT2CR compared with 5HT2BR (5HT2C serotonin receptor): 260 fold; Ki (5HT2B serotonin receptor): 4180 nM; TSPO, inhibition of radioligand binding at 10 μM (class) (rat kidney TSPO; Table 2): ^d (<30% inhibition of radioligand binding at 10 μM); Ki (DOR [4]): 1990 ± 1020 nM; Ki (MOR [5]): 1530 ± 560 nM
CCCOC(=O)[C@@]12C[C@@H]1[C@@H](n1cnc3c(NC)nc(C#Cc4ccc(Cl)s4)nc31)[C@H](O)[C@@H]2O [compound 30] | – | –426% | 437 ± 167 nM | 13% | 53% | 1160 ± 560 nM | ^d (<30% inhibition of radioligand binding at 10 μM) | ^d (<30% inhibition of radioligand binding at 10 μM) | – | – | –
CNc1nc(C#Cc2ccc(Cl)s2)nc2c1ncn2[C@H]1[C@H](O)[C@H](O)[C@]2(C(=O)NCCN)C[C@H]12 [compound 21] | 158 ± 8 nM | –136% | – | – | – | > 10000 nM | – | – | 510 nM | – | Ki (KOR [3]): 2790 nM; DOR, inhibition of radioligand binding at 10 μM (class) (DOR [4]; Table 1): ^f (<30% inhibition of radioligand binding at 10 μM)
CNc1nc(C#Cc2ccc(Br)s2)nc2c1ncn2[C@H]1[C@H](O)[C@H](O)[C@]2(C(=O)OC)C[C@H]12 [compound 23] | – | –370% | 2090 ± 330 nM | – | – | 8120 ± 670 nM | ^d (<30% inhibition of radioligand binding at 10 μM) | ^c (30–50% inhibition of radioligand binding at 10 μM) | 2330 nM | 57 ± 1% | –
CCOC(=O)[C@@]12C[C@@H]1[C@@H](n1cnc3c(NC)nc(C#Cc4ccc(Cl)s4)nc31)[C@H](O)[C@@H]2O [compound 24] | – | – | 396 ± 29 nM | 10% | 43% | 1290 ± 70 nM | ^c (30–50% inhibition of radioligand binding at 10 μM) | ^d (<30% inhibition of radioligand binding at 10 μM) | – | 45 ± 5% | KOR Antag (%) (KOR [8]): 58.2%; MOR Antag (%) (MOR [9]; vs naloxone 121 = 100% inhibition, agonist 99 (300 nM)): –13.4%; MOR Ag (%) (MOR [9]; vs standard agonist = 100%): 0.3%; DOR Antag (%) (DOR [10]; vs naloxone 121 = 100% inhibition): 35.3%; DOR Ag (%) (DOR [10]; vs standard agonist = 100%): 0.7%
CNc1nc(C#Cc2ccc(Cl)s2)nc2c1ncn2[C@H]1[C@H](O)[C@H](O)[C@]2(C(=O)OC)C[C@H]12 [compound 22] | – | –352% | 3130 ± 300 nM | – | – | – | ^d (<30% inhibition of radioligand binding at 10 μM) | ^c (30–50% inhibition of radioligand binding at 10 μM) | – | 36 ± 1% | TSPO, inhibition of radioligand binding at 10 μM (class) (rat kidney TSPO; Table 2): ^c (30–50% inhibition of radioligand binding at 10 μM)
